{
  "source": "patent US20200338045A1",
  "about": "“ISOINDOLINE COMPOSITIONS AND METHODS FOR TREATING NEURODEGENERATIVE DISEASE” (priority 2017, published 2020)",
  "key": {"[1]": {"test_system": "Aβ oligomers bound to neuronal receptors", "assay": "Aβ oligomer binding to / displacement from neuronal receptors", "assay_type": "cell-based"}, "[2]": {"test_system": "aged transgenic mouse models of AD", "assay": "Aged transgenic mouse models of AD (cognition, synapses, CSF proteins)", "assay_type": "in vivo"}, "[3]": {"assay": "Phase 1 MAD cognitive testing in healthy elderly cohort", "assay_type": "in vivo, human", "protocol": "The Alzheimer's Disease Assessment Scale-Cognition Subscale (ADAS-Cog 13) and a cognitive battery (including the category fluency test, controlled word association test, WMS-R digit span, digit symbol substitution test, and Rey Auditory Verbal Learning Test) were administered to subjects in the elderly cohort at baseline and on Day 14."}, "[4]": {"assay": "Phase 1b/2a clinical trial (COG0102): safety and tolerability", "assay_type": "in vivo, human", "details": "for Mild TEAEs-n (%) / Moderate TEAEs-n (%) / SAEs-n (%) / Severe TEAEs-n (%) / TEAEs-n (%): once daily 28 days", "protocol": "Safety and pharmacokinetics were primary objectives of the study, with changes in molecular biomarkers and cognitive outcomes identified as an exploratory objective. […]\nThis trial (ClinicalTrials.gov NCT02907567) was a randomized, double-blind, placebo-controlled clinical trial in mild to moderate Alzheimer's patients (MMSE 18-26) (See FIG. 1 for clinical trial design). The trial was conducted at six sites in Australia. Patients were randomized into placebo (n=5) or CT1812-treated groups: 90 mg (n=4), 280 mg (n=5) or 560 mg (n=5) and treated once daily for 28 days. Clinical chemistry was done at Sydpath (Sydney, AU). Pharmacokinetics were done at CPR Pharma Services (Adelaide, AU). Cerebrospinal fluid samples were taken at screening and day 21-28 of treatment and aliquoted. Plasma samples were taken at screening or Day 1 (one sample) and day 14-28, then spun down to separate plasma and aliquoted. One set of CSF samples was analyzed for Alzheimer's disease biomarkers; protein measurements (Aβ42, A1340, total tau, tau phosphorylated at threonine 181 (phosphorylated tau), NFL and neurogranin) were performed using commercially available ELISA assays from Fujirebio according to the manufacturer's instructions (INNOTEST β-AMYLOID(1-42), INNOTEST β-AMYLOID(1-40), INNOTEST hTau Ag, INNOTEST PHOSPHO-TAU(181P), Uman Diagnostics NFL assay). Neurogranin was measured with a sandwich ELISA method using antibodies Ng2 and Ng22 developed at the University of Gotteborg (Kvartsberg et al. 2015). Identical aliquots of CSF, and plasma were analyzed for protein expression changes via LC/MSMS at Caprion (see below)."}, "[5]": {"assay": "Phase 1 multiple ascending dose (MAD) plasma pharmacokinetics", "assay_type": "in vivo, human", "protocol": "In Part B, healthy young subjects in each cohort received the same dose once daily for 14 days after overnight fasting. Cohort dosing started at 280 mg, followed by 560 mg and 840 mg in subsequent cohorts. In each cohort, eight subjects received drug and two received placebo. A fourth cohort of healthy elderly subjects (≥65 years old) received a 560 mg dose vs. placebo daily for 14 days (seven active, two placebo).\nIn Part A, blood draws for assessment of PK parameters occurred pre-dose and at 15, 30, 45, 60, and 90 minutes post dose as well as at 2, 3, 4, 8, 12, 24, 36, and 48 hours post dose. […] In Part B, blood samples for plasma PK analysis were taken on Day 1 at pre-dose and at 2 hours post-dose, on Day 3 at pre-dose and at 15, 30 and 45 minutes and 1, 2, 3, 4, 8, 12 and 24 hours post-dose, on Days 4, 6, 8 and 10 at pre-dose and at 1.5 hours post-dose and following the final dose on Day 14 at pre-dose and 15, 30 and 45 minutes and 1, 2, 4, 8, 12, 24, 36 and 48 hours post-dose.\nThis was assessed by analysis of variance (ANOVA) of log-transformed Cmax, AUC0-24, AUC0-48, and/or AUC0-inf, using a model with factors for treatment (fed status or age [young vs. elderly] status) and subject within sequence. Treatment mean differences and 90% confidence intervals of the log transformed PK parameters were back-transformed, to present the geometric least squares means ratios and 90% confidence limits."}},
  "note": "“Also recorded” adds a separate entry of the source. Marks after values point to notes of the source that are not given here.",
  "data": [
    {"smiles": "CC(C)(C)Oc1cc(CCC(C)(C)N2Cc3ccc(S(C)(=O)=O)cc3C2)ccc1O", "note": "[CT1812]", "values": [
      {"measurement": "displacement of Aβ oligomers from neuronal/synaptic receptors", "setting": "[1]", "result": "displaces amyloid beta (Aβ) oligomers from neuronal receptors; also recorded: displace oligomers from synaptic receptor sites; also recorded: prevents and displaces binding of Aβ oligomers to neurons"},
      {"measurement": "cognitive performance / memory", "setting": "[2]; aged transgenic mouse models of AD", "result": "restoring normal cognitive performance; also recorded: restores cognitive function; also recorded: restores memory to normal"},
      {"measurement": "inflammatory protein expression in CSF", "setting": "[2]; chronic treatment of aged transgenic mice, efficacious doses, LC/MSMS", "result": "significantly reduces"},
      {"measurement": "cognitive scores before vs after treatment", "setting": "[3]; healthy elderly cohort, 560 mg, day zero vs day 14", "result": "similar"},
      {"measurement": "COWAT (Trial 2), Mean (SD)", "setting": "[3]; healthy elderly, 560 mg for 14 days (N = 7), Day 14, Day 0: 9.6 (4.2)", "result": "10.6 (5.1)"},
      {"measurement": "COWAT (Trial 1), Mean (SD)", "setting": "[3]; healthy elderly, 560 mg for 14 days (N = 7), Day 14, Day 0: 11.3 (5.7)", "result": "12.6 (4.5)"},
      {"measurement": "COWAT (Trial 3), Mean (SD)", "setting": "[3]; healthy elderly, 560 mg for 14 days (N = 7), Day 14, Day 0: 14.6 (5.7)", "result": "15.1 (3.7)"},
      {"measurement": "RAVLT, Mean (SD)", "setting": "[3]; healthy elderly, 560 mg for 14 days (N = 7), Day 14, Day 0: 17.3 (3.9)", "result": "18.7 (3.1)"},
      {"measurement": "WMS-R (Digit Span), Mean (SD)", "setting": "[3]; healthy elderly, 560 mg for 14 days (N = 7), Day 14, Day 0: 17.9 (3.3)", "result": "17.9 (3.3)"},
      {"measurement": "CFT, Mean (SD)", "setting": "[3]; healthy elderly, 560 mg for 14 days (N = 7), Day 14, Day 0: 18.4 (5.5)", "result": "19.7 (2.4)"},
      {"measurement": "DSST, Mean (SD)", "setting": "[3]; healthy elderly, 560 mg for 14 days (N = 7), Day 14, Day 0: 78.3 (11.0)", "result": "80 (9.6)"},
      {"measurement": "Headache-n (%)", "setting": "[4]; 90 mg (as in Table 3)", "result": "1 (25%) n (%)"},
      {"measurement": "Lymphocytopenia-n (%)", "setting": "[4]; 90 mg (as in Table 3)", "result": "0 (0%) n (%)"},
      {"measurement": "Nausea-n (%)", "setting": "[4]; 90 mg (as in Table 3)", "result": "0 (0%) n (%)"},
      {"measurement": "Vomiting-n (%)", "setting": "[4]; 90 mg (as in Table 3)", "result": "0 (0%) n (%)"},
      {"measurement": "Mild TEAEs-n (%)", "setting": "[4]; 90 mg (n = 4)", "result": "4 (100%) n (%)"},
      {"measurement": "Moderate TEAEs-n (%)", "setting": "[4]; 90 mg (n = 4)", "result": "0 (0%) n (%)"},
      {"measurement": "SAEs-n (%)", "setting": "[4]; 90 mg (n = 4)", "result": "0 (0%) n (%)"},
      {"measurement": "Severe TEAEs-n (%)", "setting": "[4]; 90 mg (n = 4)", "result": "0 (0%) n (%)"},
      {"measurement": "TEAEs-n (%)", "setting": "[4]; 90 mg (n = 4)", "result": "3 (75%) n (%)"},
      {"measurement": "Headache-n (%)", "setting": "[4]; 280 mg (as in Table 3)", "result": "0 (0%) n (%)"},
      {"measurement": "Lymphocytopenia-n (%)", "setting": "[4]; 280 mg (as in Table 3)", "result": "0 (0%) n (%)"},
      {"measurement": "Nausea-n (%)", "setting": "[4]; 280 mg (as in Table 3)", "result": "0 (0%) n (%)"},
      {"measurement": "Vomiting-n (%)", "setting": "[4]; 280 mg (as in Table 3)", "result": "0 (0%) n (%)"},
      {"measurement": "Mild TEAEs-n (%)", "setting": "[4]; 280 mg (n = 5)", "result": "3 (60%) n (%)"},
      {"measurement": "Moderate TEAEs-n (%)", "setting": "[4]; 280 mg (n = 5)", "result": "1 (20%) n (%)"},
      {"measurement": "SAEs-n (%)", "setting": "[4]; 280 mg (n = 5)", "result": "0 (0%) n (%)"},
      {"measurement": "Severe TEAEs-n (%)", "setting": "[4]; 280 mg (n = 5)", "result": "0 (0%) n (%)"},
      {"measurement": "TEAEs-n (%)", "setting": "[4]; 280 mg (n = 5)", "result": "4 (80%) n (%)"},
      {"measurement": "Headache-n (%)", "setting": "[4]; 560 mg (as in Table 3)", "result": "2 (40%) n (%)"},
      {"measurement": "Nausea-n (%)", "setting": "[4]; 560 mg (as in Table 3)", "result": "2 (40%) n (%)"},
      {"measurement": "Vomiting-n (%)", "setting": "[4]; 560 mg (as in Table 3)", "result": "2 (40%) n (%)"},
      {"measurement": "Mild TEAEs-n (%)", "setting": "[4]; 560 mg (n = 5)", "result": "5 (100%) n (%)"},
      {"measurement": "Moderate TEAEs-n (%)", "setting": "[4]; 560 mg (n = 5)", "result": "3 (60%) n (%)"},
      {"measurement": "SAEs-n (%)", "setting": "[4]; 560 mg (n = 5)", "result": "0 (0%) n (%)"},
      {"measurement": "Severe TEAEs-n (%)", "setting": "[4]; 560 mg (n = 5)", "result": "0 (0%) n (%)"},
      {"measurement": "TEAEs-n (%)", "setting": "[4]; 560 mg (n = 5)", "result": "5 (100%) n (%)"},
      {"measurement": "safety and tolerability", "setting": "[4]; 90, 280 and 560 mg once daily 28 days, mild to moderate Alzheimer's patients", "result": "generally safe and well tolerated"},
      {"measurement": "ALT", "setting": "[4]; one participant at 560 mg, resolved by end of study, no increase in bilirubin", "result": "~4.7", "unit": "×ULN"},
      {"measurement": "CLss/F (mean)", "setting": "[5]; 280 mg QD, Day 14, age up to 64 years (n = 8), unit assumed", "result": 387, "unit": "L/h"},
      {"measurement": "CLss/F (mean)", "setting": "[5]; 560 mg QD, Day 14, age at least 65 years, n = 7", "result": "169^‡‡"}
    ]}
  ]
}
